Data reported in US20170037014A1, “FUNGICIDAL PYRAZOLES” (E. I. DU PONT DE NEMOURS AND COMPANY, priority 2014, published 2017).
Marks after values point to notes of the source that are not given here.

Columns and labels:
[1] = system: Puccinia recondita f sp. tritici; assay: Test A: wheat leaf rust, preventive spray on wheat seedlings, visual disease rating; type: in vivo; conditions: 100 = 100% disease control, 0 = no control
Source text: General protocol for preparing test suspensions for Tests A-D: the test compounds were first dissolved in acetone in an amount equal to 3% of the final volume and then suspended at the desired concentration (in ppm) in acetone and purified water (50/50 mix by volume) containing 250 ppm of the surfactant Trem® 014 (polyhydric alcohol esters). The resulting test suspensions were then used in Tests A-D. The test suspension was sprayed to the point of run-off on wheat seedlings. The following day the seedlings were inoculated with a spore suspension of Puccinia recondita f sp. tritici (the causal agent of wheat leaf rust) and incubated in a saturated atmosphere at 20° C. for 24 h, and then moved to a growth chamber at 20° C. for 7 days, after which time visual disease ratings were made. In the Table, a rating of 100 indicates 100% disease control and a rating of 0 indicates no disease control (relative to the controls). A dash (−) indicates no test results. All results are for 250 ppm except where followed by an “*” which indicates 50 ppm, and where followed by an “**” which indicates 10 ppm

[2] = system: Septoria tritici; assay: Test B: wheat leaf blotch, preventive spray on wheat seedlings, visual disease rating; type: in vivo; conditions: 100 = 100% disease control, 0 = no control
Source text: General protocol for preparing test suspensions for Tests A-D: the test compounds were first dissolved in acetone in an amount equal to 3% of the final volume and then suspended at the desired concentration (in ppm) in acetone and purified water (50/50 mix by volume) containing 250 ppm of the surfactant Trem® 014 (polyhydric alcohol esters). The resulting test suspensions were then used in Tests A-D. The test suspension was sprayed to the point of run-off on wheat seedlings. The following day the seedlings were inoculated with a spore suspension of Septoria tritici (the causal agent of wheat leaf blotch) and incubated in a saturated atmosphere at 24° C. for 48 h, and then moved to a growth chamber at 20° C. for 19 days, after which time visual disease ratings were made. In the Table, a rating of 100 indicates 100% disease control and a rating of 0 indicates no disease control (relative to the controls). A dash (−) indicates no test results. All results are for 250 ppm except where followed by an “*” which indicates 50 ppm, and where followed by an “**” which indicates 10 ppm

[3] = system: Blumeria graminis f sp. tritici; assay: Test D: wheat powdery mildew, preventive spray on wheat seedlings, visual disease rating; type: in vivo; conditions: 100 = 100% disease control, 0 = no control
Source text: General protocol for preparing test suspensions for Tests A-D: the test compounds were first dissolved in acetone in an amount equal to 3% of the final volume and then suspended at the desired concentration (in ppm) in acetone and purified water (50/50 mix by volume) containing 250 ppm of the surfactant Trem® 014 (polyhydric alcohol esters). The resulting test suspensions were then used in Tests A-D. The test suspension was sprayed to the point of run-off on wheat seedlings. The following day the seedlings were inoculated with a spore dust of Blumeria graminis f sp. tritici, (also known as Erysiphe graminis f. sp. tritici, the causal agent of wheat powdery mildew) and incubated in a growth chamber at 20° C. for 8 days, after which time visual disease ratings were made. In the Table, a rating of 100 indicates 100% disease control and a rating of 0 indicates no disease control (relative to the controls). A dash (−) indicates no test results. All results are for 250 ppm except where followed by an “*” which indicates 50 ppm, and where followed by an “**” which indicates 10 ppm

[4] = system: Botrytis cinerea; assay: Test C: tomato Botrytis, preventive spray on tomato seedlings, visual disease rating; type: in vivo; conditions: 100 = 100% disease control, 0 = no control
Source text: General protocol for preparing test suspensions for Tests A-D: the test compounds were first dissolved in acetone in an amount equal to 3% of the final volume and then suspended at the desired concentration (in ppm) in acetone and purified water (50/50 mix by volume) containing 250 ppm of the surfactant Trem® 014 (polyhydric alcohol esters). The resulting test suspensions were then used in Tests A-D. The test suspension was sprayed to the point of run-off on tomato seedlings. The following day the seedlings were inoculated with a spore suspension of Botrytis cinerea (the causal agent of tomato Botrytis) and incubated in a saturated atmosphere at 20° C. for 48 h, and then moved to a growth chamber at 24° C. for 3 days, after which time visual disease ratings were made. In the Table, a rating of 100 indicates 100% disease control and a rating of 0 indicates no disease control (relative to the controls). A dash (−) indicates no test results. All results are for 250 ppm except where followed by an “*” which indicates 50 ppm, and where followed by an “**” which indicates 10 ppm

[5] = Zymoseptoria tritici, 50 ppm (*)

SMILES	Test A disease control rating ([1]; 50 ppm (*))	Test B disease control rating ([2]; 50 ppm (*))	Test D disease control rating ([3]; 50 ppm (*))	melting point [°C]	Test C disease control rating ([4]; 50 ppm (*))	other results
CCC(C)c1c(Nc2c(F)cc([N+](=O)[O-])cc2F)c(C)nn1C (centres unmarked) [Compound 16]	0* %	22* %	0* %			
CCC(C)c1c(C(O)c2ccc(F)cc2F)c(C)nn1C (stereo not drawn) [Compound 10, α-(2,4-difluorophenyl)-1,3-dimethyl-5-(1-methylpropyl)-1H-pyrazole-4-methanol]				118 to 121		pest or weed control at 250 ppm ([1]; 250 ppm): 100%; pest or weed control at 250 ppm ([2]; Zymoseptoria tritici, 250 ppm): 99%; pest or weed control at 250 ppm ([4]; Botrytis cinerea, 250 ppm): 99%; pest or weed control at 250 ppm ([3]; Blumeria graminis, 250 ppm): 100%
Cc1nn(C)c(C(C)C)c1C(O)c1ccc(F)cc1F (centres unmarked) [Compound 2]	57* %	99* %	99* %		0* %	
Cc1nn(C)c(C2CCCC2)c1C(O)c1ccc(F)cc1Cl (centres unmarked) [Compound 19]	89* %	100* %	89* %		0* %	
CCC(C)c1c(C(O)c2c(Cl)cccc2Cl)c(C)nn1C (stereo not drawn) [Compound 24, α-(2,6-dichlorophenyl)-1,3-dimethyl-5-(1-methylpropyl)-1H-pyrazole-4-methanol]				175 to 178		pest or weed control at 50 ppm ([1]; 50 ppm (*)): 99%; pest or weed control at 50 ppm [2, 5]: 69%; pest or weed control at 50 ppm ([4]; Botrytis cinerea, 50 ppm (*)): 40%; pest or weed control at 50 ppm ([3]; Blumeria graminis, 50 ppm (*)): 84%
CCC(C)c1c(C(O)c2c(F)cc(F)cc2F)c(C)nn1C (stereo not drawn) [Compound 23, 1,3-dimethyl-5-(1-methylpropyl)-α-(2,4,6-trifluorophenyl)-1H-pyrazole-4-methanol]				114 to 117		pest or weed control at 50 ppm ([1]; 50 ppm (*)): 97%; pest or weed control at 50 ppm [2, 5]: 94%; pest or weed control at 50 ppm ([4]; Botrytis cinerea, 50 ppm (*)): 31%; pest or weed control at 50 ppm ([3]; Blumeria graminis, 50 ppm (*)): 96%
CCC(C)c1c(Nc2ccc(F)cc2Cl)c(C)nn1C (centres unmarked) [Compound 18]	0* %	0* %	0* %			
Cc1nn(C)c(CC(C)C)c1C(O)c1ccc(F)cc1F (stereo not drawn) [Compound 14, α-(2,4-difluorophenyl)-1,3-dimethyl-5-(2-methylpropyl)-1H-pyrazole-4-methanol]				129 to 133		pest or weed control at 50 ppm ([1]; 50 ppm (*)): 74%; pest or weed control at 50 ppm [2, 5]: 99%; pest or weed control at 50 ppm ([4]; Botrytis cinerea, 50 ppm (*)): 16%; pest or weed control at 50 ppm ([3]; Blumeria graminis, 50 ppm (*)): 98%
CCC(C)c1c(Nc2ccc(F)c(F)c2)c(C)nn1C (centres unmarked) [Compound 20]	0* %	0* %	26* %			
CC=C(C)c1c(Oc2ccc(F)cc2Cl)c(C)nn1C [Compound 4]						Test A disease control rating ([1]; 250 ppm): 0%; Test B disease control rating ([2]; 250 ppm): 0%; Test C disease control rating ([4]; 250 ppm): 39%; Test D disease control rating ([3]; 250 ppm): 56%
Cn1nc(Br)c(C(O)c2ccc(F)cc2Cl)c1C1=CCCCC1 (centres unmarked) [Compound 28]	80* %	87* %	64* %		0* %	
Cc1nn(C)c(C2CCCCC2)c1Oc1ccc(F)cc1Cl [Compound 12, 4-(2-chloro-4-fluorophenoxy)-5-cyclohexyl-1,3-dimethyl-1H-pyrazole]				75 to 79		pest or weed control at 250 ppm ([1]; 250 ppm): 79%; pest or weed control at 250 ppm ([2]; Zymoseptoria tritici, 250 ppm): 19%; pest or weed control at 250 ppm ([4]; Botrytis cinerea, 250 ppm): 9%; pest or weed control at 250 ppm ([3]; Blumeria graminis, 250 ppm): 90%
Cc1nn(C)c(CC(C)C)c1C(O)c1ccc(F)cc1Cl (stereo not drawn) [Compound 3, α-(2-chloro-4-fluorophenyl)-1,3-dimethyl-5-(2-methylpropyl)-1H-pyrazole-4-methanol]				159 to 162		pest or weed control at 10 ppm ([1]; 10 ppm (**)): 89%; pest or weed control at 10 ppm ([2]; Zymoseptoria tritici, 10 ppm (**)): 100%; pest or weed control at 10 ppm ([4]; Botrytis cinerea, 10 ppm (**)): 0%; pest or weed control at 10 ppm ([3]; Blumeria graminis, 10 ppm (**)): 71%
C=C(C)Cc1c(C(O)c2ccc(F)cc2Cl)c(C)nn1C (centres unmarked) [Compound 5]	68* %	99* %	76* %		0* %	
CC=C(C)c1c(C(O)c2ccc(F)cc2Cl)c(Br)nn1C (centres unmarked) [Compound 27]	99* %	100* %			58* %	Test D disease control rating ([3]; 250 ppm): 86%
CCC(C)c1c(Oc2ccc(F)cc2Cl)c(C)nn1C (centres unmarked) [Compound 7]						Test A disease control rating ([1]; 250 ppm): 0%; Test B disease control rating ([2]; 250 ppm): 0%; Test C disease control rating ([4]; 250 ppm): 0%; Test D disease control rating ([3]; 250 ppm): 0%
CCC(C)c1c(Nc2c(F)cc(C#N)cc2F)c(C)nn1C (centres unmarked) [Compound 17]	0* %	35* %	69* %			
Cc1nn(C)c(C2CCCC2)c1C(O)c1ccc(F)cc1F (centres unmarked) [Compound 26]	74* %	97* %	90* %		26* %	
Cc1nn(C)c(C2CCCCC2)c1C(O)c1ccc(F)cc1F (stereo not drawn) [Compound 11, 5-cyclohexyl-α-(2,4-difluorophenyl)-1,3-dimethyl-1H-pyrazole-4-methanol]				161 to 164		pest or weed control at 250 ppm ([1]; 250 ppm): 99%; pest or weed control at 250 ppm ([2]; Zymoseptoria tritici, 250 ppm): 100%; pest or weed control at 250 ppm ([4]; Botrytis cinerea, 250 ppm): 99%; pest or weed control at 250 ppm ([3]; Blumeria graminis, 250 ppm): 97%
CCC(C)c1c(C(O)c2c(F)cccc2F)c(C)nn1C (centres unmarked) [Compound 25]	74* %	63* %	86* %		17* %	
Cc1nn(C)c(C2CCCCC2)c1C(O)c1ccc(F)cc1Cl (stereo not drawn) [Compound 8, α-(2-chloro-4-fluorophenyl)-5-cyclohexyl-1,3-dimethyl-1H-pyrazole-4-methanol]				146 to 149		pest or weed control at 250 ppm ([1]; 250 ppm): 99%; pest or weed control at 250 ppm ([2]; Zymoseptoria tritici, 250 ppm): 99%; pest or weed control at 250 ppm ([4]; Botrytis cinerea, 250 ppm): 86%; pest or weed control at 250 ppm ([3]; Blumeria graminis, 250 ppm): 93%
Cc1nn(C)c(C2=CCCCC2)c1Oc1ccc(F)cc1Cl [Compound 13, 4-(2-chloro-4-fluorophenoxy)-5-(1-cyclohexen-1-yl)-1,3-dimethyl-1H-pyrazole]						pest or weed control at 250 ppm ([1]; 250 ppm): 9%; pest or weed control at 250 ppm ([2]; Zymoseptoria tritici, 250 ppm): 0%; pest or weed control at 250 ppm ([4]; Botrytis cinerea, 250 ppm): 0%; pest or weed control at 250 ppm ([3]; Blumeria graminis, 250 ppm): 67%
CCC(C)c1c(Nc2c(F)cc(F)cc2F)c(C)nn1C (centres unmarked) [Compound 15]	0* %	1* %	0* %			
